Results published in patent US20260240842A1, “METHODS TO PREVENT THERAPY RESISTANCE IN MELANOMA VIA BLOCKING GENOMIC INSTABILITY” (THE REGENTS OF THE UNIVERSITY OF CALIFORNIA, priority 2022, published 2026).

Test system: KRAS^G12C NSCLC cell lines (H358, H2122)
Assay: Long-term clonogenic growth, acquired MAPKi resistance in NSCLC cell lines
Type: cell-based, human
Details: combined with MAPKi; FIG. 6G to 6J
Source text: FIGS. 6A-6J. DNA-PKi co-treatment prevents acquired MAPKi-resistance in KRAS^G12 human pancreatic ductal adenocarcinoma and non-small cell lung carcinoma cell lines. FIGS. 6A to 6J: Long-term clonogenic growth of PDAC (MIAPaCa-2, XWR200) (6A to 6F) or NSCLC (H358, H2122) (6G to 6J) cell lines showing acquired-resistant colonies to MEKi alone, type II RAFi+MEKi, or KRAS G12Ci+MEKi and their suppression by indicated co-treatments with DNA-PKi (NU7026) and/or PARPi (ABT888) at indicated concentrations. Top, representative cultures; bottom, quantifications over n=4 fields (mean±SD). Data representative of 2 independent repeats. Seeding densities (cells/well in 6-well dishes) and culture durations: MIAPaCa-2 (10,000; 30 days for 6A-6C), XWR200 (150,000; 23 days for 6D, 30 days for 6E, 26 days for 6F), H358 (40,000; 14 days for 6G, 29 days for 6H, 26 days for 6I), H2122 (20,000, 22 days for 6J). […]
For clonogenic assay, cells were plated at indicated cell densities in six-well plates and treated with inhibitor(s) the next day. […] Formazan was then dissolved in 100 μL DMSO, and the absorbance values were measured using an ELISA reader (SpectraMax Plus 384) at the wavelength of 570 nm, blanked with DMSO solution. […]

| Compound | suppression of acquired MAPKi resistance, number of NSCLC cell lines |
| --- | --- |
| C[C@]1(c2nc3c(C(N)=O)cccc3[nH]2)CCCN1 [ABT888, veliparib] | generally ineffective |
| O=c1cc(N2CCOCC2)oc2c1ccc1ccccc12 [NU7026] | one of two |
